In the NIST ThermoML archive (doi:10.1021/acs.jced.9b00187):

Columns and labels:
[1] = Liquid; for viscosity: Moving piston method; for vapor or sublimation pressure: Closed cell (Static) method
[2] = xn = mol fraction of the nth substance listed; settings: Liquid, Moving piston method

CCCCCCCCCCCC [dodecane]
[1]
Settings	viscosity [mPa·s]
284.6 K, 670 kPa	1.75
284.6 K, 2190 kPa	1.78
284.7 K, 2710 kPa	1.79
284.7 K, 4240 kPa	1.82
294 K, 8310 kPa	1.63
322.3 K, 4240 kPa	0.98
350.5 K, 690 kPa	0.66
350.5 K, 4250 kPa	0.68
350.5 K, 8310 kPa	0.72
353.1 K, 8320 kPa	0.69

CCCCCCCCCCCC [dodecane] + O=C=O
[2]
Settings	viscosity [mPa·s]
283.7 K, 4630 kPa, x2 = 0.8	0.353
283.97 K, 4610 kPa, x2 = 0.8	0.362
284.33 K, 3710 kPa, x2 = 0.5999	0.578
284.41 K, 2630 kPa, x2 = 0.401	0.96
284.44 K, 2530 kPa, x2 = 0.401	0.972
284.6 K, 1460 kPa, x2 = 0.2009	1.227
305.43 K, 5410 kPa, x2 = 0.5999	0.487
305.44 K, 5360 kPa, x2 = 0.5999	0.498
305.64 K, 1770 kPa, x2 = 0.2009	0.865
305.65 K, 3610 kPa, x2 = 0.401	0.667
305.69 K, 1730 kPa, x2 = 0.2009	0.86
305.82 K, 6880 kPa, x2 = 0.8	0.272
328.83 K, 10780 kPa, x2 = 0.8	0.236
328.86 K, 7350 kPa, x2 = 0.5999	0.373
328.99 K, 4470 kPa, x2 = 0.401	0.493
329.3 K, 2050 kPa, x2 = 0.2009	0.585
350.19 K, 5510 kPa, x2 = 0.401	0.397
350.49 K, 14270 kPa, x2 = 0.8	0.208
350.95 K, 9320 kPa, x2 = 0.5999	0.305
351.33 K, 2490 kPa, x2 = 0.2009	0.437

O=C=O [carbon dioxide]
[1]
Settings	vapor or sublimation pressure [kPa]
282.15 K	4392
287.11 K	4961
291.84 K	5555
296.64 K	6214
301.38 K	6928
